From patent US12043599B2, “Herbicidal compounds” (SYNGENTA PARTICIPATIONS AG, priority 2018, dated 2024)

Tests used:
Assay type in all cases: in vivo
Conditions in all cases: 250 g/h, evaluated after 13 days
[1] = system: Echinochloa crus-galli (ECHCG); experiment: Pre-emergence herbicidal glasshouse test, percentage damage
How it was run: (§1)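 Herbicidal effect was scored 13 days after a 250 g/h spray, using bands of 0-19% (1) through 80-100% (5). Sowing preceded spraying by 1 day for pre-emergence and 8 days for post-emergence. The glasshouse ran at 24/16 °C with 14 h light.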

Lolium perenne (LOLPE) [2] = experiment: as above
How it was run: as §1

[3] = system: Alopecurus myosuroides (ALOMY); experiment: as above
How it was run: as §1

Setaria faberi (SETFA) [4] = experiment: as above
How it was run: as §1

Avena fatua (AVEFA) [5] = experiment: as above
How it was run: as §1

[6] = system: Echinochloa crus-galli (ECHCG); experiment: Post-emergence herbicidal glasshouse test, percentage damage
How it was run: as §1

Lolium perenne (LOLPE) [7] = experiment: as above
How it was run: as §1

[8] = system: Alopecurus myosuroides (ALOMY); experiment: as above
How it was run: as §1

Avena fatua (AVEFA) [9] = experiment: as above
How it was run: as §1

Setaria faberi (SETFA) [10] = experiment: as above
How it was run: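 Percentage damage was scored 13 days after treatment on a five-point scale (1=0-19% to 5=80-100%). Treatments were post-emergence sprays on 8-day-old wheat, barley and SETFA plants in a glasshouse (24/16 °C day/night, 14 h light, 65% humidity), using acetone/water 50:50 with 0.5% Tween 20 at the stated rates. Wheat additionally received cloquintocet-mexyl safener at 50 g/ha.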

Row | Structure (SMILES) | ECHCG PRE percentage damage (five point scale) [1] | LOLPE PRE percentage damage (five point scale) (Lolium perenne (LOLPE) [2]) | ALOMY PRE percentage damage (five point scale) [3] | SETFA PRE percentage damage (five point scale) (Setaria faberi (SETFA) [4]) | AVEFA PRE percentage damage (five point scale) (Avena fatua (AVEFA) [5]) | ECHCG POST percentage damage (five point scale) [6] | LOLPE POST percentage damage (five point scale) (Lolium perenne (LOLPE) [7]) | ALOMY POST percentage damage (five point scale) [8] | AVEFA POST percentage damage (five point scale) (Avena fatua (AVEFA) [9]) | SETFA POST percentage damage (five point scale) (Setaria faberi (SETFA) [10])
1 | CC#Cc1cc(C)c(C2C(=O)CC3(CCN(C(=O)c4cccc(C#N)n4)CC3)CC2=O)c(C)c1 [Compound A178] | 4 (4=60-79%) | 5 (5=80-100%) | 4 (4=60-79%) | 5 (5=80-100%) | 5 (5=80-100%) | 5 (5=80-100%) | 5 (5=80-100%) | 5 (5=80-100%) | 5 (5=80-100%) | 5 (5=80-100%)
2 | CC#Cc1cc(C)c(C2C(=O)CC3(CCN(C(=O)c4cncc(OC)n4)CC3)CC2=O)c(C)c1 [Compound A180] | 5 (5=80-100%) | 5 (5=80-100%) | 5 (5=80-100%) | 5 (5=80-100%) | 5 (5=80-100%) | 5 (5=80-100%) | 5 (5=80-100%) | 5 (5=80-100%) | 5 (5=80-100%) | 5 (5=80-100%)
3 | CC#Cc1cc(C)c(C2C(=O)CC3(CCN(C(=O)C4=CCCCO4)CC3)CC2=O)c(C)c1 [Compound A182] | 5 (5=80-100%) | 5 (5=80-100%) | 5 (5=80-100%) | 5 (5=80-100%) | 3 (3=40-59%) | 5 (5=80-100%) | 5 (5=80-100%) | 5 (5=80-100%) | 4 (4=60-79%) | 5 (5=80-100%)
4 | CC#Cc1cc(C)c(C2C(=O)CC3(CCN(C(=O)CCc4ccn(C)n4)CC3)CC2=O)c(C)c1 [Compound A183] | 5 (5=80-100%) | 5 (5=80-100%) | 4 (4=60-79%) | 5 (5=80-100%) | 4 (4=60-79%) | 5 (5=80-100%) | 5 (5=80-100%) | 5 (5=80-100%) | 5 (5=80-100%) | 5 (5=80-100%)
5 | CC#Cc1cc(C)c(C2C(=O)CC3(CCN(C(=O)CCc4ccccn4)CC3)CC2=O)c(C)c1 [Compound A184] | 4 (4=60-79%) | 5 (5=80-100%) | 1 (1=0-19%) | 5 (5=80-100%) | 2 (2=20-39%) | 5 (5=80-100%) | 5 (5=80-100%) | 4 (4=60-79%) | 5 (5=80-100%) | 5 (5=80-100%)
6 | CC#Cc1cc(C)c(C2C(=O)CC3(CCN(C(=O)COC(C)(C)C)CC3)CC2=O)c(C)c1 [Compound A185] | 5 (5=80-100%) | 5 (5=80-100%) | 5 (5=80-100%) | 5 (5=80-100%) | 4 (4=60-79%) | 5 (5=80-100%) | 5 (5=80-100%) | 5 (5=80-100%) | 5 (5=80-100%) | 5 (5=80-100%)
7 | CC#Cc1cc(C)c(C2C(=O)CC3(CCN(C(=O)COCCC)CC3)CC2=O)c(C)c1 [Compound A186] | 5 (5=80-100%) | 5 (5=80-100%) | 5 (5=80-100%) | 5 (5=80-100%) | 5 (5=80-100%) | 5 (5=80-100%) | 5 (5=80-100%) | 5 (5=80-100%) | 5 (5=80-100%) | 5 (5=80-100%)
8 | CC#Cc1cc(C)c(C2C(=O)CC3(CCN(C(=O)C4CC(C)=NO4)CC3)CC2=O)c(C)c1 (centres unmarked) [Compound A187] | 5 (5=80-100%) | 5 (5=80-100%) | 4 (4=60-79%) | 5 (5=80-100%) | 5 (5=80-100%) | 5 (5=80-100%) | 5 (5=80-100%) | 5 (5=80-100%) | 5 (5=80-100%) | 5 (5=80-100%)
9 | CC#Cc1cc(C)c(C2C(=O)CC3(CCN(C(=O)c4ccc(C#N)nc4)CC3)CC2=O)c(C)c1 [Compound A191] | 5 (5=80-100%) | 5 (5=80-100%) | 2 (2=20-39%) | 5 (5=80-100%) | 4 (4=60-79%) | 5 (5=80-100%) | 5 (5=80-100%) | 5 (5=80-100%) | 5 (5=80-100%) | 5 (5=80-100%)
10 | CC#Cc1cc(C)c(C2C(=O)CC3(CCN(C(=O)c4cnccc4C#N)CC3)CC2=O)c(C)c1 [Compound A192] | 5 (5=80-100%) | 5 (5=80-100%) | 3 (3=40-59%) | 5 (5=80-100%) | 3 (3=40-59%) | 5 (5=80-100%) | 5 (5=80-100%) | 5 (5=80-100%) | 5 (5=80-100%) | 5 (5=80-100%)
11 | CC#Cc1cc(C)c(C2C(=O)CC3(CCN(C(=O)CCCOC)CC3)CC2=O)c(C)c1 [Compound A193] | 5 (5=80-100%) | 5 (5=80-100%) | 5 (5=80-100%) | 5 (5=80-100%) | 5 (5=80-100%) | 5 (5=80-100%) | 5 (5=80-100%) | 5 (5=80-100%) | 5 (5=80-100%) | 5 (5=80-100%)
12 | CC#Cc1cc(C)c(C2C(=O)CC3(CCN(C(=O)Cc4csc(C(F)F)n4)CC3)CC2=O)c(C)c1 [Compound A194] | 5 (5=80-100%) | 5 (5=80-100%) | 4 (4=60-79%) | 5 (5=80-100%) | 5 (5=80-100%) | 5 (5=80-100%) | 5 (5=80-100%) | 4 (4=60-79%) | 5 (5=80-100%) | 5 (5=80-100%)
13 | CC#Cc1cc(C)c(C2C(=O)CC3(CCN(C(=O)CCn4cccn4)CC3)CC2=O)c(C)c1 [Compound A195] | 2 (2=20-39%) | 5 (5=80-100%) | 4 (4=60-79%) | 5 (5=80-100%) | 5 (5=80-100%) | 5 (5=80-100%) | 5 (5=80-100%) | 5 (5=80-100%) | 5 (5=80-100%) | 5 (5=80-100%)
14 | CC#Cc1cc(C)c(C2C(=O)CC3(CCN(C(=O)Cc4cnc[nH]4)CC3)CC2=O)c(C)c1 [Compound A196] | 5 (5=80-100%) | 5 (5=80-100%) | 3 (3=40-59%) | 5 (5=80-100%) | 4 (4=60-79%) | 5 (5=80-100%) | 5 (5=80-100%) | 5 (5=80-100%) | 5 (5=80-100%) | 5 (5=80-100%)
